Experimental findings from patent EP1820502A1, “Active substance combination comprising azolylcarbinol compounds” (LABORATORIOS DEL DR. ESTEVE, S.A., priority 2006, dated 2007) are described below.

This assay relates to mechanical allodynia/hyperalgesia in rats with unilateral ligatures of the sciatic nerve. The assay can be described thus: Randall-Selitto test (pressure thresholds for paw withdrawal and vocalization) in rats with unilateral ligatures of the sciatic nerve. As to conditions: two weeks after sciatic nerve ligature, cizolirtine 5 mg/kg i.p., gabapentin 30 mg/kg i.p., or both 5 min apart; for pressure thresholds for triggering vocalization (analgesic effect): Figure 2; for pressure thresholds to trigger paw withdrawal (analgesic effect): ipsilateral right hindpaw, Figure 1. In kind it is in vivo. As to the method:
Ligatures of the right sciatic nerve were made in pentobarbital (50 mg/kg i.p.)-anesthetized rats according to the classical protocol of Bennett and Xie (1988) which is well known by those skilled in the art. Sham operated animals were subjected to the same surgical procedure except that the nerve was not ligated. Prior to surgery and two weeks afterwards, rats were subjected to the Randall-Selitto test to determine the pressure thresholds for triggering withdrawal of the ipsilateral, right hindpaw and vocalization. Animals were then immediately injected with either cizolirtine (5 mg/kg i.p.), gabapentin (30 mg/kg i.p.) or both drugs. In the latter case, a 5 min interval elapsed between the injection of cizolirtine (1st) and that of gabapentin (2nd). Time 0 on the abscissa (see Figs 1 & 2) corresponded to the second injection. The Randall-Selitto test was then applied for the determination of pressure thresholds at various times up to at least 5 hours thereafter.

For `CN(C)CCOC(c1ccccc1)c1ccnn1C` (racemic) [Cizolirtine, (±)-N,N-dimethyl-2-((1-methyl-1H-pyrazol-5-yl)(phenyl)methoxy)ethanamine], the “pressure thresholds for triggering vocalization (analgesic effect)” value is recorded as “decrease the threshold to trigger vocalization” and the “pressure thresholds to trigger paw withdrawal (analgesic effect)” value is given as “decrease the pressure threshold to trigger paw withdrawal”.
On the same counts, the results for `NCC1(CC(=O)O)CCCCC1` [Gabapentin, 1-(aminomethyl) cyclohexaneacetic acid] are “decrease the threshold to trigger vocalization” and “decrease the pressure threshold to trigger paw withdrawal”.
